The values that follow come from patent publication US8501910B2, “Protein sweetener” (Wisconsin Alumni Research Foundation, priority 2007, dated 2013).

The subject of this assay is humans. Put plainly: Human taste panel scoring sweetness on a magnitude labeled scale. The class given is in vivo. As to conditions: for sweetness potency: FIG. 1, human taste panel, varied concentrations diluted in water, compared for the weight being tested. An excerpt:
To test the sweetness potency of our peptides we tested human perception of sweetness against known controls using varied concentrations of the protein (or other substance) being diluted in water. In the taste panel, humans were requested to score the sweetness sensations of the stimuli with a magnitude labeled scale in accordance with the techniques of B. Green et al., 21 Chemical Senses 323 (1996) (e.g. barely detectable; weak; moderate; strong; very strong; strongest imaginable).
We first gave those testers a sample of pure water with 2-10% sucrose as a calibration exercise two hours before protein testing. After the sucrose testing, they rinsed their mouth out thoroughly. The normal protocol included applying about 125 μI of the substance being tasted to the tongue, with the tested material kept in the mouth for about a minute.

Turning to “SEQ ID NO. 4: Brazzein variant with tyrosine at position 53 of SEQ ID NO: 1 replaced by another amino acid (probably Phe) (DKCKKVYENYPVSKCQLANQCNYDCKLKKHARSGECFYDEKRNLQCICDYCEF)”, the “sweetness potency (individual observer)” value (tested by one individual observer, not a complete panel) is reported as “results similar to those for SEQ ID NO.5”. For “SEQ ID NO. 5: Brazzein variant Y53W: tyrosine at position 53 of SEQ ID NO: 1 replaced (DKCKKVYENYPVSKCQLANQCNYDCKLKKHARSGECFYDEKRNLQCICDYCEW)”, the sweetness potency entry is “significantly higher sweetness potency than either sucrose or wild type Brazzein”. As for “SEQ ID NO. 6: Brazzein variant Y53H: tyrosine at position 53 of SEQ ID NO: 1 replaced (DKCKKVYENYPVSKCQLANQCNYDCKLKKHARSGECFYDEKRNLQCICDYCEH)”, the sweetness potency result was “significantly higher sweetness potency than sucrose”. As to “SEQ ID NO. 7: Brazzein variant with Ile Ile inserted at the N terminus of wild type Brazzein (IIDKCKKVYENYPVSKCQLANQCNYDCKLNKHARSGECFYDEKRNLQCICDYCEY)”, the sweetness potency entry is reported as “significantly higher sweetness potency than either sucrose or wild type Brazzein”. Turning to “SEQ ID NO. 8: Brazzein variant with Gly Pro inserted at the N terminus of wild type Brazzein (GPDKCKKVYENYPVSKCQLANQCNYPCKLNKHARSGECFYDEKRNLQCICDYCEY)”, the sweetness potency entry was “significantly higher sweetness potency than either sucrose or wild type Brazzein”.
